Tested on in the first data set: not listed separately
As to the kind of experiment: Half life in Sprague-Dawley rat at 3 mg/kg, iv measured by LC/MS analysis. The settings on record: in vivo. It is filed as ADME, organism-based.
Chain of Histamine H4 receptor (Q9H3N8 whole entry): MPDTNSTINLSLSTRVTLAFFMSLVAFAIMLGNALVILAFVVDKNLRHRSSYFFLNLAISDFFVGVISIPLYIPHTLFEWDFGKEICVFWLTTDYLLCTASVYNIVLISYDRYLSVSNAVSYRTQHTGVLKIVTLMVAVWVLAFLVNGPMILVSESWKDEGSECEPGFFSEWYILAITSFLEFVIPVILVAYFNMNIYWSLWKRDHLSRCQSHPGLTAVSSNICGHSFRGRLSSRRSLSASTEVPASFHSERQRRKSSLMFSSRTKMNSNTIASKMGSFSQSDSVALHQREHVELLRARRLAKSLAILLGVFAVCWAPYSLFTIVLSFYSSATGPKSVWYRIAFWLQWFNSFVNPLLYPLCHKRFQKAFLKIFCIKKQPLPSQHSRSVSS
As a reminder, the half-life is how long it takes for the measured level to halve. A low value points to rapid decline. `CN1CCN(C(=O)c2cc3cc(Cl)ccc3[nH]2)CC1` [JNJ-7777120] had a half-life of 48 min.

A further data set has as its target Histamine H4 receptor (Homo sapiens, UniProt Q9H3N8). Briefly: Binding affinity to histamine H4 receptor (unknown origin) assessed as inhibition constant.
Conditions: not given
The term Ki denotes the equilibrium dissociation constant of an inhibitor or competing ligand from its target. As to `O=C(c1cc2ccccc2[nH]1)N1CCNCC1`, the Ki was found to be 4.9 nM.

Turning to `CN1CCN(C(=O)c2nc3cc(Cl)ccc3[nH]2)CC1`, the Ki is 27 nM. `CN1CCN(c2cc(-c3ccc(Cl)cc3)nc(N)n2)CC1`: the inhibitory constant (Ki) came to 4.8 nM.

As for `Cc1cc(C)c2nc(-c3cnc(NCCCC4CCN(C)CC4)nc3C)[nH]c2c1` [TOREFORANT], the Ki amounted to 8.4 nM.

Another data set has as its target T1, Cysteinyl leukotriene receptor 1 (Cavia porcellus, UniProt Q2NNR5).
T1 sequence (Q2NNR5 whole entry): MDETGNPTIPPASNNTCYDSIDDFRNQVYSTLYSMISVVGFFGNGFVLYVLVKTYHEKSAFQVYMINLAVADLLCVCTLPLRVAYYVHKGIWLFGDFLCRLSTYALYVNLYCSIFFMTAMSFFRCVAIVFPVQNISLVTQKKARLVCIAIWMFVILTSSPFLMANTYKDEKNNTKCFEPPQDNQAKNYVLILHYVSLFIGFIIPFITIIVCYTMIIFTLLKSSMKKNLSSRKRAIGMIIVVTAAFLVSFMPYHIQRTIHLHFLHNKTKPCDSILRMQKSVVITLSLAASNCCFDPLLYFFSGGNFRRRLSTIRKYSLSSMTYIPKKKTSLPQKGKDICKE
Briefly: Inhibition of guinea pig leukotriene D4.
Conditions: not given
What is called IC50 is the concentration that gives 50% inhibition. `Cn1nccc1-c1ccc(Sc2ccc(C3(C(N)=O)CCOCC3)cc2)cc1` had an IC50 of 229 nM. Still for that read-out and setting: the value for `COC1(c2cc(F)cc(OCc3ccc4c(ccc(=O)n4C)c3)c2)CCOCC1` [ZD-2138] was 300 nM.

The next data set addresses T2, Leukotriene C4 synthase (Homo sapiens, UniProt Q16873).
T2 sequence (Q16873 whole entry): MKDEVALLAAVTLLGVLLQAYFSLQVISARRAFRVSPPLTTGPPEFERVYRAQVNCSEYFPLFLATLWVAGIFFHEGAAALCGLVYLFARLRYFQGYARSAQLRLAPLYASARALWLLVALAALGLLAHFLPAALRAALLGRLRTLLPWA
Briefly: Inhibition of LTC4 (unknown origin).
Conditions: not given
With `Oc1ccc(CCNC(=S)Nc2ccc(Br)cn2)cc1`, half-maximal inhibition (IC50) was put at 5000 nM. Same read-out and setting: the value for `S=C(NCCc1c[nH]c2ccccc12)Nc1ccc(Cl)cn1` was 5000 nM; that for `Cc1cccc(NC(=S)NC(C)c2cccc3ccccc23)n1` (configuration not stated) was 1600 nM. Still for that read-out and setting: the value for `CCOC(=O)Cc1csc(NC(=S)NC(C)c2cccc3ccccc23)n1` (configuration not stated) was 2 nM. Compound `Cc1ccc(NC(=S)NC(C)c2cccc3ccccc23)nc1` (configuration not stated) gave an IC50 of 5 nM.

These data come from ChEMBL document CHEMBL5346900, “Treatment of allergy: Overview of synthetic anti-allergy small molecules in medicinal chemistry” (Eur J Med Chem, 2023).
